Experimental data published in ChEMBL document CHEMBL1142280, “Discovery of new small molecules that influence neuroblast cell migration from the subventricular zone” (2008).
Active and inactive are the calls of the source. The rule behind the calls is not given here.

Columns and labels:
Mus musculus [1] = species: Mus musculus; test: Inhibition of mouse neuroblast cell migration from subventricular zone tissue explants at 12.3 uM after 48 hrs relative to control; format: functional
[2] = Inhibition of mouse neuroblast cell migration from subventricular zone tissue explants at 123 uM after 48 hrs relative to control; format: functional
[3] = (§1) Inhibition of mouse neuroblast cell migration from subventricular zone tissue explants at 63 uM after 48 hrs relative to control; format: functional
[4] = Inhibition of mouse neuroblast cell migration from subventricular zone tissue explants at 224 uM after 48 hrs relative to control; format: functional
Mus musculus [5] = species: Mus musculus; test: Inhibition of mouse neuroblast cell migration from subventricular zone tissue explants at 22 uM after 48 hrs relative to control; format: functional
Mus musculus [6] = species: Mus musculus; test: Inhibition of PR21-stimulated mouse neuroblast cell migration from subventricular zone tissue explants after 24 hrs; format: functional
Mus musculus [7] = species: Mus musculus; test: Inhibition of mouse neuroblast cell migration from subventricular zone tissue explants after 24 hrs; format: functional
[8] = Inhibition of mouse neuroblast cell migration from subventricular zone tissue explants at 68 uM after 48 hrs relative to control; format: functional
Mus musculus [9] = species: Mus musculus; test: Reversal of inhibition of mouse neuroblast cell migration from subventricular zone tissue explants in presence of PR21; format: functional
Mus musculus [10] = species: Mus musculus; test: Inhibition of mouse neuroblast cell migration from subventricular zone tissue explants at 6.8 uM after 48 hrs relative to control; format: functional
[11] = Inhibition of mouse neuroblast cell migration from subventricular zone tissue explants at 34 uM after 48 hrs relative to control; format: functional
Mus musculus [12] = species: Mus musculus; test: Inhibition of mouse neuroblast cell migration from subventricular zone tissue explants at 67 uM after 48 hrs relative to control; format: functional
Mus musculus [13] = species: Mus musculus; test: Inhibition of mouse neuroblast cell migration from subventricular zone tissue explants at 100 uM after 48 hrs relative to control; format: functional
[14] = Inhibition of mouse neuroblast cell migration from subventricular zone tissue explants at 223 uM after 48 hrs relative to control; format: functional
Mus musculus [15] = species: Mus musculus; test: Inhibition of mouse neuroblast cell migration from subventricular zone tissue explants at 13.9 uM after 48 hrs relative to control; format: functional
[16] = Inhibition of mouse neuroblast cell migration from subventricular zone tissue explants at 139 uM after 48 hrs relative to control; format: functional
Mus musculus [17] = species: Mus musculus; test: as §1; format: functional
[18] = Inhibition of mouse neuroblast cell migration from subventricular zone tissue explants at 154 uM after 48 hrs relative to control; format: functional
[19] = Inhibition of mouse neuroblast cell migration from subventricular zone tissue explants at 250 uM after 48 hrs relative to control

## c1ccc(CNCCSSCCNCc2ccccc2)cc1
Mus musculus [1]
  Activity: inactive
[2]
  inhibition at 123 µM: 100%

## c1cc(CN2CCCNCCNCCCNCC2)cc(CN2CCCNCCNCCCNCC2)c1
[3]
  inhibition at 63 µM: 10%

## C1CNCCNCCNCCN1
[4]
  inhibition at 224 µM: 19%
Mus musculus [5]
  Activity: inactive

## COc1ccccc1CNCCCCCCNCCSSCCNCCCCCCNCc1ccccc1OC [BENEXTRAMINE]
Mus musculus [6]
  Activity: Active
Mus musculus [7]
  Activity: Active
[8]
  inhibition at 68 µM: 100%
Mus musculus [9]
  Activity: Active
Mus musculus [10]
  Activity: inactive
[11]
  inhibition at 34 µM: 45%

## C1CNCCNCCCN(CCCCN2CCCNCCNCCCNCC2)CCNC1
Mus musculus [12]
  Activity: inactive

## CC(CNCCCCCN)SSC(C)CNCCCCCN (configuration not stated)
Mus musculus [13]
  Activity: inactive

## NCCSSCCN [CYSTAMINE]
[14]
  inhibition at 223 µM: 33%

## O=C(NCCSSCCNC(=O)c1ccccc1)c1ccccc1
Mus musculus [15]
  Activity: inactive
[16]
  inhibition at 139 µM: 100%

## C1CNCCNCCCN(CC2CCC(CN3CCCNCCNCCCNCC3)CC2)CCNC1 (configuration not stated)
Mus musculus [17]
  Activity: inactive

## c1cc(CN2CCCNCCNCCCNCC2)ccc1CN1CCCNCCNCCCNCC1
Mus musculus [17]
  Activity: inactive

## c1ccc(CN2CCCNCCNCCCNCC2)c(CN2CCCNCCNCCCNCC2)c1
Mus musculus [17]
  Activity: inactive

## O=C(NCCCCCCNC(=O)c1ccccc1)c1ccccc1
[18]
  inhibition at 154 µM: 50%

## O=C(c1ccc(C(=O)N2CCCNCCNCCCNCC2)cc1)N1CCCNCCNCCCNCC1
Mus musculus [12]
  Activity: inactive

## C1CNCCNCCCNCCNC1
[19]
  inhibition at 250 µM: 20%
